# Experimental data from patent US12239617B2, “Mono- and di-amidine endo-exonuclease inhibitors and methods for inhibiting endo-exonuclease activity” (MONTDOREX INC., priority 2017, dated 2025).
# Legend:
# [1] = system: Endo/exonuclease in Pneumocystis carinii; conditions: cited from earlier work
# [2] = system: human endo-exonuclease; assay: Endo-exonuclease inhibition assay (digestion of circular plasmid DNA, agarose gel); type: biochemical
# Description: The human endo-exonuclease was isolated according to the method described by Liu and Chow et al (1995). The cultured cells were detached with trypsin-EDTA and the cell suspensions were centrifuged at 4° C. with a force of 700 g for 10 minutes. The cell pellets were washed twice with cold phosphate buffered saline (PBS). The cells were then resuspended and sonicated in 20 mM Tris-HCl, pH 7.5, containing 5 mM EDTA and 1 mM PMSF (buffer A). The resulting cell lysis suspensions were centrifuged at 4° C. at 10,000 g for 15 min. The supernatants were then loaded onto an antibody-protein A-Sepharose affinity column, as previously described by Chow and Resnick (1987). After washing extensively with buffer A (i.e. until the A280 of the eluates were zero), the column was then eluted with buffer A containing 3.5 M MgCl2 to elute the endo-exonuclease. The eluted endo-exonuclease was dialyzed extensively against buffer A with at least two changes of buffer and one change of distilled water. The endo-exonuclease was then concentrated by lyophilization.
# The endo-exonuclease activities were determined by measuring the digestion of circular plasmid DNA following the exemplary set of steps. Superhelical pBR322 DNA (or YEp DNA) was treated with endo-exonuclease at 37° C. Reactions were stopped by the addition of a solution containing 5 mM EDTA, 1% SDS, 30% glycerol, and bromophenol blue. The resulting mixtures were then loaded onto a 0.7% agarose gel and electrophoresed for 3 hours at 70 V. The gels were stained with 100 ml of 0.5 μg/ml ethidium bromide solution. Endo-exonuclease activities were measured as the rate of conversion from RFI to RFII to RFIII and subsequent fragments.
# For the inhibition assay, pentamidine, mono-amidine compounds according to the present teachings and di-amidine compounds according to the present teachings were added to the endo-exonuclease prior to the start of the nuclease reaction. In order to arrive at the measurements related to the % of cell growth of H661, the MTT assay as described above was performed. The resulting endo-exonuclease inhibition is shown in the Table 1 and Table 2 that follow: […]
# [3] = system: Lewis Lung cancer cells; assay: Lewis Lung cancer secondary lung tumours in mice after removal of the primary tumour; type: in vivo; conditions: treated after surgical removal of primary tumour
# Description: Lewis Lung cancer cells are injected subcutaneously into standard laboratory mice […]. Thereafter, they rapidly formed solid tumours. The sizes of the tumours can be measured. Although the injected cells are derived from lung cancers, the tumours actually grow in the back of the mice. All animals were inoculated at the same site. Primary tumours were allowed to grow until they were 0.5-1.0 cm^3 in size. At this point, cells from the tumours start circulating in the blood streams of the mice. These circulating cells have the capacity to form secondary tumours in the lung. The primary tumours are removed surgically from the mice. The mice are then treated with the amidine compounds so as to try and control the growth of secondary tumours. The extent to which control has been achieved is measured by sacrificing the mice and by physically counting the new tumours that can be seen growing on the surfaces of the lungs.
# [4] = system: H460 Lung Carcinoma Cell Line; assay: MTT assay on H460 Lung Carcinoma Cell Line; type: cell-based
# Excerpt: (§1) Cell Survival—MTT assay: The MTT (3-[4,5-Dimethylthiazol-2-yl]-2,5 diphenyl tertrazolim bromide) method of determining cell growth/cytotoxicity is used to determine cell survival. MIT is a tetrazolium salt cleaved by mitochondrial dehydrogenases of living cells. Cleavage converts yellow, water soluble MTT to an insoluble, purple formazan crystal. The crystals can be solubilized with a 50% N,N-dimethylformamide (vol/vol), 20% SDS (wt/vol) solution (pH4.7), and absorbance determined at a wavelength of 570 nm. Dead cells will not cleave MTT and uncleaved MTT is not detectable at this wavelength. The amount of MTT that is cleaved increases with increasing cell numbers, and decreases as a result of cell cytotoxicity (Niks and Otto 1990, Hussain et al. 1993). Cells were harvested from cell cultures using a standard protocol (i.e. Trypsin/EDTA). The cells (1000 to 5000 cells depending on cell type in 50 μl) were then plated and incubated overnight at 37° C. The compound (e.g. the compound of formula (I); compound of formula (II); pentamidine; or the vehicle) was introduced. After 2 days of incubation at 37° C., 10 μl of a 5 mg/ml solution of MTT was then added to all the experimental wells as well as the media control well. The plates were further incubated for 4 hours. MTT solubilization buffer (100 μl) was then added and the plates were incubated overnight at 37° C. The plates were then read on an ELISA plate reader with absorbance at 570 nm and a reference at 630 nm.
# (§2) Iniparib, Veliparib and Olaparib were also subjected to the MTT assay without an endo-exonuclease compound as controls.
# [5] = system: MCF7 Breast Cancer Cell Line; assay: MTT assay on MCF7 Breast Cancer Cell Line; type: cell-based, human
# Description: (§3) Cell lines from human colon adenocarcinoma (HT29), human breast adenocarcinoma (MCF7) and human cervical epithelioid carcinoma (HeLa) were obtained from the American Type Culture Collection (ATCC) and have ATCC accession numbers HTB-38, HTB-22, and CCL-2 respectively. The normal primary cell, NHDF, was obtained from Dr. Shirley Lehnert. These cells are normal human skin fibroblasts. The cells were grown in RPMI media supplemented with 10% FCS at 37° C. in a humidified incubator with 5% CO2.
# as §1, §2
# [6] = system: HT29 Colon Cancer Cell Line; assay: MTT assay on HT29 Colon Cancer Cell Line; type: cell-based, human
# Description: as §3, §1, §2
# [7] = cited from earlier work
# [8] = system: H661 (Lung Cancer Cell); assay: MTT assay, cell growth of H661 lung cancer cell; type: cell-based
# Excerpt: as §1, with “4 hours. […] The plates” for “4 hours. MTT solubilization buffer (100 μl) was then added and the plates were incubated overnight at 37° C. The plates”, “630 nm. […]” for “630 nm.”
# [9] = Homo sapiens, NCI-H460, PARP inhibitor alone: Iniparib 42 μM, Veliparib 50 μM, Olaparib 73 μM
# [10] = Homo sapiens, PARP inhibitor alone: Iniparib 42 μM, Veliparib 50 μM, Olaparib 73 μM
# [11] = Homo sapiens, HT-29, PARP inhibitor alone: Iniparib 42 μM, Veliparib 50 μM, Olaparib 73 μM
structure (smiles),measurement,setting,value
"N=C(NC1CC1)c1ccc(-c2ccc(-c3ccc(C(=N)NC4CC4)cc3)o2)cc1 [2,5-bis [4-N-(cyclopropylguanyl)phenyl] furan]",nuclease inhibition activity in P. carinii,[1],showed nuclease inhibition activity
"c1cc(-c2ccc(-c3ccc(C4=NCCCN4)cc3)o2)ccc1C1=NCCCN1 [2,5-bis-p[3,4,5,6-tetrahydropyrimidyl)phenyl]furan]",nuclease inhibition activity in P. carinii,[1],showed nuclease inhibition activity
"CC(C)NC(=N)c1ccc(-c2ccc(-c3ccc(C(=N)NC(C)C)cc3)o2)cc1 [2,5-bis[4-(N-isopropylguanyl)phenyl]furan]",nuclease inhibition activity in P. carinii,[1],inhibits endo-exonuclease activity
"CC(C)CNC(=N)c1ccc(-c2ccc(-c3ccc(C(=N)NCC(C)C)cc3)o2)cc1 [2,5-bis[4-N-isobutylguanyl)phenyl]furan]",nuclease inhibition activity in P. carinii,[1],showed nuclease inhibition activity
"N=C(NCC1CC1)c1ccc(-c2ccc(-c3ccc(C(=N)NCC4CC4)cc3)o2)cc1 [2,5-bis[4-[(N-cyclopropylmethylguanyl)phenyl]furan]",nuclease inhibition activity in P. carinii,[1],showed nuclease inhibition activity
"N=C(N)c1ccc(-c2ccc(-c3ccc(C(=N)N)cc3)o2)cc1 [2,5-bis[4-guanylphenyl]furan]",nuclease inhibition activity in P. carinii,[1],showed nuclease inhibition activity
"N=C(NC1CCC1)c1ccc(-c2ccc(-c3ccc(C(=N)NC4CCC4)cc3)o2)cc1 [2,5-bis[(4-N-cyclobutylgunayl)phenyl]furan]",nuclease inhibition activity in P. carinii,[1],showed nuclease inhibition activity
"N=C(NC1CCCC1)c1ccc(-c2ccc(-c3ccc(C(=N)NC4CCCC4)cc3)o2)cc1 [2,5-bis[(4-N-cyclopentylguanyl)phenyl]furan]",nuclease inhibition activity in P. carinii,[1],showed nuclease inhibition activity
N=C(Nc1ccccc1)c1ccc(OCCCCCOc2ccc(C(=N)Nc3ccccc3)cc2)cc1 [Di-Amidine A],IC50,[2],58 µM
same,Lung Cysts remaining (% of Control),[3],1.7 % of Control
same,% Inhibition,[4]; MTDX101 33 μM alone,25%
same,% Inhibition,[4]; MTDX101 336 μM alone,85%
same,% Inhibition,[5]; MTDX101 33 μM alone,20%
same,% Inhibition,[5]; MTDX101 336 μM alone,80%
same,% Inhibition,[6]; MTDX101 33 μM alone,15%
same,% Inhibition,[6]; MTDX101 336 μM alone,64%
CC(C)NC(=N)c1ccc(OCCCCCOc2ccc(C(=N)NC(C)C)cc2)cc1 [Di-Amidine B],IC50,[2],14 µM
same,Lung Cysts remaining (% of Control),[3],0.22 % of Control
NC(=O)c1ccc(I)c([N+](=O)[O-])c1 [Iniparib],inhibition at 42 µM,[4]; [9],0.8%
same,inhibition at 42 µM,[5]; [10],5%
same,inhibition at 42 µM,[6]; [11],4.8%
O=C(c1cc(Cc2n[nH]c(=O)c3ccccc23)ccc1F)N1CCN(C(=O)C2CC2)CC1 [Olaparib],inhibition at 73 µM,[4]; [9],11%
same,inhibition at 73 µM,[5]; [10],17%
same,inhibition at 73 µM,[6]; [11],14%
"N=C(N)c1ccc(OCCCCCOc2ccc(C(=N)N)cc2)cc1 [Pentamidine, pentamidine]",IC50,[2],50 µM
same,Endo-exonuclease Inhibition at 50 μM (%),[2]; 50 μM,50%
same,Lung Cysts remaining (% of Control),[3],4.5 % of Control
same,safety for patients,[7]; 4 mg/kg to 7 mg/kg for two days every two weeks,safe for patients
same,toxicity (known clinical data),"[7]; human, in vivo",low toxicity
same,H661 (Lung Cancer Cell) (% of Cell Growth at 2.5 μM),"[8]; 2.5 μM, negative value = cell killing",20 ± 2%
same,death of the cancer cells (H661),[8]; Table 1,Death of the cancer cells was not observed
C[C@]1(c2nc3c(C(N)=O)cccc3[nH]2)CCCN1 [Veliparib],inhibition at 50 µM,[4]; [9],19%
same,inhibition at 50 µM,[5]; [10],13%
same,inhibition at 50 µM,[6]; [11],6%
